# Assay results from patent US20230085307A1, “PYRIDAZINONE COMPOUND AND HERBICIDE” (NISSAN CHEMICAL CORPORATION, priority 2019, published 2023).
# Assays:
# late watergrass = test: Test Example 1: herbicidal activity, application before weed generation under submerged conditions (Table 16, symbol A); format: in vivo, late watergrass (Echinochloa oryzicola); conditions: 320 g/ha applied herbicide
# In short: (§1)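 Alluvial soil was flooded to 4 cm depth, weed seeds were sown mixed and 2.5-leaf rice seedlings were transplanted. On sowing day, the compound's emulsion, diluted in water to a set dose, was applied to the water surface. Plants grew at 25–30 °C and were scored 0–5 after three weeks.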
# Japanese bulrush = test: Test Example 1: herbicidal activity, application before weed generation under submerged conditions (Table 16, symbol B); format: in vivo, Japanese bulrush (Schoenoplectus juncoides); conditions: 320 g/ha applied herbicide
# In short: as §1
# oval-leafed pondweed = test: Test Example 1: herbicidal activity, application before weed generation under submerged conditions (Table 16, symbol C); format: in vivo, oval-leafed pondweed (Monochoria vaginalis); conditions: 320 g/ha applied herbicide
# In short: as §1
# barnyard grass [1] = test: Test Example 3: herbicidal effect by foliage application, Wagner pot (Table 18, symbol H); format: in vivo, barnyard grass (Echinochloa crus-galli); conditions: 320 g/ha
# In short: (§2)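 Plants were sown in alluvial soil held under 0.1–0.5 cm standing water and grown 14 days in a greenhouse at 25–30 °C. An emulsifiable formulation, water-diluted to the set dose, was then sprayed onto the foliage, and effects were scored three weeks later using previously defined criteria.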
# Chinese sprangletop = test: Test Example 3: herbicidal effect by foliage application, Wagner pot (Table 18, symbol D); format: in vivo, chinese sprangletop (Leptochloa chinensis); conditions: 320 g/ha
# In short: as §2
# rice flat sedge = test: Test Example 3: herbicidal effect by foliage application, Wagner pot (Table 18, symbol E); format: in vivo, rice flat sedge (Cyperus iria); conditions: 320 g/ha
# In short: as §2
# southern crabgrass [2] = test: Test Example 4: herbicidal effect by soil treatment (Table 19, symbol F); format: in vivo, southern crabgrass (Digitaria ciliaris); conditions: 320 g/ha
# In short: (§3)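 In this soil treatment, the formulated compound reached the seeds only through the soil: seeds were buried about 1.5 cm deep in sterilized diluvial soil, then the diluted emulsion was sprayed over the surface. After three weeks at 25° C. to 30° C. in a greenhouse, effects were graded on criteria from an earlier test.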
# green foxtail [3] = test: Test Example 4: herbicidal effect by soil treatment (Table 19, symbol G); format: in vivo, green foxtail (Setaria viridis); conditions: 320 g/ha
# In short: as §3
# barnyard grass [4] = test: Test Example 4: herbicidal effect by soil treatment (Table 19, symbol H); format: in vivo, barnyard grass (Echinochloa crus-galli); conditions: 320 g/ha
# In short: as §3
# wild oat [5] = test: Test Example 4: herbicidal effect by soil treatment (Table 19, symbol I); format: in vivo, wild oat (Avena fatua); conditions: 320 g/ha
# In short: as §3
# blackgrass [6] = test: Test Example 4: herbicidal effect by soil treatment (Table 19, symbol J); format: in vivo, blackgrass (Alopecurus myosuroides); conditions: 320 g/ha
# In short: as §3
# Italian ryegrass [7] = test: Test Example 4: herbicidal effect by soil treatment (Table 19, symbol K); format: in vivo, Italian ryegrass (Lolium multiflorum); conditions: 320 g/ha
# In short: as §3
# windgrass [8] = test: Test Example 4: herbicidal effect by soil treatment (Table 19, symbol L); format: in vivo, windgrass (Apera spica-venti); conditions: 320 g/ha
# In short: as §3
# velvetleaf [9] = test: Test Example 4: herbicidal effect by soil treatment (Table 19, symbol M); format: in vivo, velvetleaf (Abutilon theophrasti); conditions: 320 g/ha
# In short: as §3
# redroot pigweed = test: Test Example 4: herbicidal effect by soil treatment (Table 19, symbol N); format: in vivo, redroot pigweed (Amaranthus retroflexus); conditions: 320 g/ha
# In short: as §3
# lambsquarters [10] = test: Test Example 4: herbicidal effect by soil treatment (Table 19, symbol O); format: in vivo, lambsquarters (Chenopodium album); conditions: 320 g/ha
# In short: as §3
# chickweed = test: Test Example 4: herbicidal effect by soil treatment (Table 19, symbol P); format: in vivo, common chickweed (Stellaria media); conditions: 320 g/ha
# In short: as §3
# persian speedwell [11] = test: Test Example 4: herbicidal effect by soil treatment (Table 19, symbol R); format: in vivo, Persian speedwell (Veronica persica); conditions: 320 g/ha
# In short: as §3
# southern crabgrass [12] = test: Test Example 5: herbicidal effect by foliage application, plastic box (Table 20, symbol F); format: in vivo, southern crabgrass (Digitaria ciliaris); conditions: foliage application, 320 g/ha, 3 weeks after application
# In short: (§4)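 Plants were sown into sterilized diluvial soil under about 1.5 cm cover and kept in a greenhouse at 25° C. to 30° C. Fourteen days on, foliage received an even spray of the diluted emulsion. Herbicidal or crop effect was judged three weeks afterwards.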
# green foxtail [13] = test: Test Example 5: herbicidal effect by foliage application, plastic box (Table 20, symbol G); format: in vivo, green foxtail (Setaria viridis); conditions: foliage application, 320 g/ha, 3 weeks after application
# In short: as §4
# barnyard grass [14] = test: Test Example 5: herbicidal effect by foliage application, plastic box (Table 20, symbol H); format: in vivo, barnyard grass (Echinochloa crus-galli); conditions: foliage application, 320 g/ha, 3 weeks after application
# In short: as §4
# wild oat [15] = test: Test Example 5: herbicidal effect by foliage application, plastic box (Table 20, symbol I); format: in vivo, wild oat (Avena fatua); conditions: foliage application, 320 g/ha, 3 weeks after application
# In short: as §4
# blackgrass [16] = test: Test Example 5: herbicidal effect by foliage application, plastic box (Table 20, symbol J); format: in vivo, blackgrass (Alopecurus myosuroides); conditions: foliage application, 320 g/ha, 3 weeks after application
# In short: as §4
# Italian ryegrass [17] = test: Test Example 5: herbicidal effect by foliage application, plastic box (Table 20, symbol K); format: in vivo, Italian ryegrass (Lolium multiflorum); conditions: foliage application, 320 g/ha, 3 weeks after application
# In short: as §4
# windgrass [18] = test: Test Example 5: herbicidal effect by foliage application, plastic box (Table 20, symbol L); format: in vivo, windgrass (Apera spica-venti); conditions: foliage application, 320 g/ha, 3 weeks after application
# In short: as §4
# velvetleaf [19] = test: Test Example 5: herbicidal effect by foliage application, plastic box (Table 20, symbol M); format: in vivo, velvetleaf (Abutilon theophrasti); conditions: foliage application, 320 g/ha, 3 weeks after application
# In short: as §4
# lambsquarters [20] = test: Test Example 5: herbicidal effect by foliage application, plastic box (Table 20, symbol O); format: in vivo, lambsquarters (Chenopodium album); conditions: foliage application, 320 g/ha, 3 weeks after application
# In short: as §4
# persian speedwell [21] = test: Test Example 5: herbicidal effect by foliage application, plastic box (Table 20, symbol R); format: in vivo, Persian speedwell (Veronica persica); conditions: foliage application, 320 g/ha, 3 weeks after application
# In short: as §4
smiles,measurement,setting,value
Cc1nn(C)c(=O)c(-c2c(-c3ccc(C(F)(F)F)cc3)sc3ccc(F)cc23)c1O [2-020],Herbicidal effect on A: late watergrass (grade 0-5),late watergrass,0 (Herbicidal rate of 5% or less (almost no effect))
same,Herbicidal effect on B: Japanese bulrush (grade 0-5),Japanese bulrush,2 (Herbicidal rate of 20% or more and less than 40%)
same,Herbicidal effect on C: oval-leafed pondweed (grade 0-5),oval-leafed pondweed,0 (Herbicidal rate of 5% or less (almost no effect))
same,"herbicidal effect on H (barnyard grass), rating 0-5",barnyard grass [1],5 (Herbicidal rate of 90% or more (almost completely withered))
same,"herbicidal effect on D (Chinese sprangletop), rating 0-5",Chinese sprangletop,3 (Herbicidal rate of 40% or more and less than 70%)
same,"herbicidal effect on E (rice flat sedge), rating 0-5",rice flat sedge,5 (Herbicidal rate of 90% or more (almost completely withered))
same,"herbicidal effect rating, F: southern crabgrass",southern crabgrass [2],3 (Herbicidal rate of 40% or more and less than 70%)
same,"herbicidal effect rating, G: green foxtail",green foxtail [3],4 (Herbicidal rate of 70% or more and less than 90%)
same,"herbicidal effect rating, H: barnyard grass",barnyard grass [4],2 (Herbicidal rate of 20% or more and less than 40%)
same,"herbicidal effect rating, I: wild oat",wild oat [5],0 (Herbicidal rate of 5% or less (almost no effect))
same,"herbicidal effect rating, J: blackgrass",blackgrass [6],3 (Herbicidal rate of 40% or more and less than 70%)
same,"herbicidal effect rating, K: Italian ryegrass",Italian ryegrass [7],5 (Herbicidal rate of 90% or more (almost completely withered))
same,"herbicidal effect rating, L: windgrass",windgrass [8],5 (Herbicidal rate of 90% or more (almost completely withered))
same,"herbicidal effect rating, M: velvetleaf",velvetleaf [9],3 (Herbicidal rate of 40% or more and less than 70%)
same,"herbicidal effect rating, N: redroot pigweed",redroot pigweed,5 (Herbicidal rate of 90% or more (almost completely withered))
same,"herbicidal effect rating, O: lambsquarters",lambsquarters [10],5 (Herbicidal rate of 90% or more (almost completely withered))
same,"herbicidal effect rating, P: chickweed",chickweed,3 (Herbicidal rate of 40% or more and less than 70%)
same,"herbicidal effect rating, R: persian speedwell",persian speedwell [11],5 (Herbicidal rate of 90% or more (almost completely withered))
same,effect on southern crabgrass (F),southern crabgrass [12],5 (Herbicidal rate of 90% or more (almost completely withered))
same,effect on green foxtail (G),green foxtail [13],5 (Herbicidal rate of 90% or more (almost completely withered))
same,effect on barnyard grass (H),barnyard grass [14],5 (Herbicidal rate of 90% or more (almost completely withered))
same,effect on wild oat (I),wild oat [15],4 (Herbicidal rate of 70% or more and less than 90%)
same,effect on blackgrass (J),blackgrass [16],3 (Herbicidal rate of 40% or more and less than 70%)
same,effect on Italian ryegrass (K),Italian ryegrass [17],5 (Herbicidal rate of 90% or more (almost completely withered))
same,effect on windgrass (L),windgrass [18],5 (Herbicidal rate of 90% or more (almost completely withered))
same,effect on velvetleaf (M),velvetleaf [19],5 (Herbicidal rate of 90% or more (almost completely withered))
same,effect on lambsquarters (O),lambsquarters [20],5 (Herbicidal rate of 90% or more (almost completely withered))
same,effect on persian speedwell (R),persian speedwell [21],5 (Herbicidal rate of 90% or more (almost completely withered))
